Results reported in the supplement of paper PMC11061612.

Tests used:
[1] = compound: C1CC(C1)(C(=O)[O-])C(=O)[O-].N.N.[Pt+2] [Carboplatin]; details: max 10 µM
In short: (§1)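 Cancer cell lines in 1536-well plates (7.5 μl DMEM/F12 or RPMI, 10% FBS) were held 24 hours at 37°C and 5% CO2 and then dosed for 72 hours at a final DMSO of typically 0.2%. Viability was taken from CellTiter-Glo 2.0 luminescence, scaled between blank-well and DMSO-well means. Curves were fitted as two-parameter logistic models with a non-linear mixed effects model, from which the single-agent IC50 was taken.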

[2] = compound: CC1(C)CCC(CN2CCN(c3ccc(C(=O)NS(=O)(=O)c4ccc(NCC5CCOCC5)c([N+](=O)[O-])c4)c(Oc4cnc5[nH]ccc5c4)c3)CC2)=C(c2ccc(Cl)cc2)C1 [Venetoclax]; details: max 1 µM
In short: as §1

[3] = compound: COc1cc2ncnc(Nc3ccc(F)c(Cl)c3)c2cc1OCCCN1CCOCC1 [Gefitinib]; details: max 10 µM
In short: as §1

[4] = compound: CC1=C(C(=CC=C1)Cl)NC(=O)C2=CN=C(S2)NC3=CC(=NC(=N3)C)N4CCN(CC4)CCO [Dasatinib]; details: max 2 µM
In short: as §1

[5] = compound: Cc1cc2ncnn2cc1Nc1ncc2c(n1)n(C1CCOCC1)c(=O)n2C [AZD7648]; details: max 10 µM
In short: as §1

[6] = compound: CN(C)CCCOc1ccc(-c2ccc3ncc4c(c3c2)n(C2CCOCC2)c(=O)n4C)cn1 [AZD0156]; details: max 3 µM
In short: as §1

[7] = compound: COc1cc([C@@H]2c3cc4c(cc3[C@@H](O[C@@H]3O[C@@H]5CO[C@@H](C)O[C@H]5[C@H](O)[C@H]3O)[C@H]3COC(=O)[C@H]23)OCO4)cc(OC)c1O [Etoposide]; details: max 10 µM
In short: as §1

[8] = compound: O=C(c1cc(Cc2n[nH]c(=O)c3ccccc23)ccc1F)N1CCN(C(=O)C2CC2)CC1 [Olaparib]; details: max 10 µM
In short: as §1

[9] = compound: COc1nnc2ccc(N3CCC(c4ccc(OCCN5CCN(C)C(=O)[C@H]5C)cc4)CC3)nn12 [AZD5153]; details: max 1 µM
In short: as §1

[10] = compound: O=C(Nc1ccc2[nH]nc(-c3ccncc3)c2c1)[C@@H]1CCN(CC(=O)N2CCN(c3ccc(-c4ncccn4)cc3)CC2)C1; details: max 5 µM
In short: as §1

[11] = compound: Cc1nc(-c2cn3c(n2)-c2ccc(-c4cnn(C(C)(C)C(N)=O)c4)cc2OCC3)n(C(C)C)n1 [Taselisib]; details: max 10 µM
In short: as §1

[12] = compound: CC(=O)c1c(C)c2cnc(Nc3ccc(N4CCNCC4)cn3)nc2n(C2CCCC2)c1=O [Palbociclib]; details: max 10 µM
In short: as §1

[13] = compound: CCN(CCO)CCCOc1ccc2c(Nc3cc(CC(=O)Nc4cccc(F)c4)[nH]n3)ncnc2c1 [AZD2811]; details: max 1 µM
In short: as §1

[14] = compound: Nc1ccn([C@@H]2O[C@H](CO)[C@@H](O)C2(F)F)c(=O)n1 [Gemcitabine]; details: max 0.3 µM
In short: as §1

[15] = compound: C1CN(CCC1(C(=O)N[C@@H](CCO)C2=CC=C(C=C2)Cl)N)C3=NC=NC4=C3C=CN4 [AZD5363]; details: max 10 µM
In short: as §1

[16] = compound: O=c1[nH]cc(F)c(=O)[nH]1 [5-Fluorouracil]; details: max 20 µM
In short: as §1

[17] = compound: CC(C)n1c(=O)n(C)c2cnc3cc(F)c(-c4ccc(OCCCN5CCCCC5)nc4)cc3c21 [AZD1390]; details: max 0.3 µM
In short: as §1

[18] = compound: N#Cc1cnc(Nc2cc(NC[C@H]3CNCCO3)c(C(F)(F)F)cn2)cn1 [SRA737]; details: max 10 µM
In short: as §1

[19] = compound: Cc1c2c(nn1C)CSCc1cc(n(C)n1)CSc1cc(c3ccccc3c1)OCCCc1c(C(=O)O)n(C)c3c-2c(Cl)ccc13 [AZD5991]; details: max 1 µM
In short: as §1

[20] = compound: Cn1cnc2c(F)c(Nc3ccc(Br)cc3Cl)c(C(=O)NOCCO)cc21 [Selumetinib]; details: max 10 µM
In short: as §1

[21] = compound: CC(=O)O[C@H]1C(=O)[C@@]2(C)[C@H]([C@H](OC(=O)c3ccccc3)[C@]3(O)C[C@H](OC(=O)[C@H](O)[C@@H](NC(=O)c4ccccc4)c4ccccc4)C(C)=C1C3(C)C)[C@]1(OC(C)=O)CO[C@@H]1C[C@@H]2O [Paclitaxel]; details: max 3 µM
In short: as §1

[22] = compound: CS(=O)(=O)CCNCc1ccc(-c2ccc3ncnc(Nc4ccc(OCc5cccc(F)c5)c(Cl)c4)c3c2)o1 [Lapatinib]; details: max 10 µM
In short: as §1

[23] = compound: C[C@@H](Oc1cc(-c2cnn(C3CCNCC3)c2)cnc1N)c1c(Cl)ccc(F)c1Cl [Crizotinib]; details: max 10 µM
In short: as §1

[24] = compound: CCc1c2c(nc3ccc(O)cc13)-c1cc3c(c(=O)n1C2)COC(=O)[C@]3(O)CC [SN-38]; details: max 0.3 µM
In short: as §1

[25] = compound: C=CCn1c(=O)c2cnc(Nc3ccc(N4CCN(C)CC4)cc3)nc2n1-c1cccc(C(C)(C)O)n1 [AZD1775]; details: max 3 µM
In short: as §1

[26] = compound: C[C@@H](Nc1cc(F)cc(F)c1)c1cc(C(=O)N(C)C)cc2c(=O)cc(N3CCOCC3)oc12 [AZD8186]; details: max 10 µM
In short: as §1

[27] = compound: C[C@@H](c1ccc2nccn2c1)n1nnc2ncc(-c3cnn(C)c3)nc21 [Savolitinib]; details: max 1 µM
In short: as §1

[28] = compound: CC1=CN2[C@@H](C1)C=NC3=CC(=C(C=C3C2=O)OC)OCCCCCOC4=C(C=C5C(=C4)N=C[C@@H]6CC(=CN6C5=O)C)OC [SG3199]; details: max 0.001 µM
In short: as §1

[29] = compound: NC1(c2ccc(-c3nc4ccn5c(=O)[nH]nc5c4cc3-c3ccccc3)cc2)CCC1 [MK-2206]; details: max 10 µM
In short: as §1

[30] = compound: CC(=O)Nc1cccc(-n2c(=O)n(C3CC3)c(=O)c3c(Nc4ccc(I)cc4F)n(C)c(=O)c(C)c32)c1 [Trametinib]; details: max 1 µM
In short: as §1

[31] = compound: COc1cccc(OCCCN)c1-c1cc(Nc2cnc(C#N)cn2)n[nH]1 [Prexasertib]; details: max 1 µM
In short: as §1

[32] = compound: CN(CC[C@H](CSC1=CC=CC=C1)NC2=C(C=C(C=C2)S(=O)(=O)NC(=O)C3=CC=C(C=C3)N4CCC(CC4)[C@H](C5=CC=CC=C5C6=CC=C(C=C6)Cl)O)S(=O)(=O)C(F)(F)F)CCO [AZD4320]; details: max 1 µM
In short: as §1

[33] = compound: COc1cccc2c1C(=O)c1c(O)c3c(c(O)c1C2=O)C[C@@](O)(C(=O)CO)C[C@@H]3O[C@H]1C[C@H](N)[C@H](O)[C@H](C)O1 [Doxorubicin]; details: max 1 µM
In short: as §1

[34] = compound: C[C@@H]1COCCN1C2=NC(=NC(=C2)C3(CC3)[S@](=N)(=O)C)C4=C5C=CNC5=NC=C4 [AZD6738]; details: max 10 µM
In short: as §1

[35] = compound: COc1cc(Nc2ncc3c(n2)-c2ccc(Cl)cc2C(c2c(F)cccc2OC)=NC3)ccc1C(=O)O [Alisertib]; details: max 10 µM
In short: as §1

Cell Line	IC50, cell viability 72 h [1] [nM]	IC50, cell viability 72 h [2] [nM]	IC50, cell viability 72 h [3] [nM]	IC50, cell viability 72 h [4] [nM]	IC50, cell viability 72 h [5] [nM]	IC50, cell viability 72 h [6] [nM]	IC50, cell viability 72 h [7] [nM]	IC50, cell viability 72 h [8] [nM]	IC50, cell viability 72 h [9] [nM]	IC50, cell viability 72 h [10] [nM]	IC50, cell viability 72 h [11] [nM]	IC50, cell viability 72 h [12] [nM]	IC50, cell viability 72 h [13] [nM]	IC50, cell viability 72 h [14] [nM]	IC50, cell viability 72 h [15] [nM]	IC50, cell viability 72 h [16] [nM]	IC50, cell viability 72 h [17] [nM]	IC50, cell viability 72 h [18] [nM]	IC50, cell viability 72 h [19] [nM]	IC50, cell viability 72 h [20] [nM]	IC50, cell viability 72 h [21] [nM]	IC50, cell viability 72 h [22] [nM]	IC50, cell viability 72 h [23] [nM]	IC50, cell viability 72 h [24] [nM]	IC50, cell viability 72 h [25] [nM]	IC50, cell viability 72 h [26] [nM]	IC50, cell viability 72 h [27] [nM]	IC50, cell viability 72 h [28] [nM]	IC50, cell viability 72 h [29] [nM]	IC50, cell viability 72 h [30] [nM]	IC50, cell viability 72 h [31] [nM]	IC50, cell viability 72 h [32] [nM]	IC50, cell viability 72 h [33] [nM]	IC50, cell viability 72 h [34] [nM]	IC50, cell viability 72 h [35] [nM]
NCI-H1651 (Lung Adenocarcinoma)	> 10000	> 1000	> 10000	> 2000	> 10000	> 3000	6010	> 10000	> 1000	> 5000	> 10000	> 10000	> 1000	> 300	> 10000	> 20000	> 300	> 10000	> 1000	> 10000	21.7	> 10000	> 10000	22.1	779	> 10000	> 1000	> 1	> 10000	> 1000	83.1	> 1000	788	> 10000	> 10000
NCI-H1703 (Squamous Cell Lung Carcinoma)	> 10000	> 1000	> 10000	47.8	> 10000	> 3000	1640	> 10000	400	> 5000	625	9730	> 1000	4.23	6660	> 20000	> 300	1170	393	> 10000	5.86	> 10000	8010	36.7	222	4060	> 1000	> 1	2830	> 1000	8.59	> 1000	142	917	6210
NCI-H2087 (Lung Adenocarcinoma)	> 10000	> 1000	> 10000	> 2000	> 10000	> 3000	> 10000	> 10000	> 1000	2200	> 10000	> 10000	> 1000	255	> 10000	> 20000	> 300	> 10000	> 1000	6120	225	> 10000	> 10000	18.8	> 3000	> 10000	> 1000	> 1	> 10000	350	96.2	> 1000	> 1000	> 10000	> 10000
PEO1 (Ovarian Carcinoma)	> 10000	> 1000	> 10000	> 2000	> 10000	> 3000	> 10000	> 10000	> 1000	> 5000	8190	> 10000	> 1000	> 300	> 10000	> 20000	> 300	> 10000	> 1000	> 10000	52.9	> 10000	> 10000	57.3	1540	> 10000	> 1000	> 1	> 10000	> 1000	> 1000	> 1000	> 1000	> 10000	> 10000
SK-HEP-1 (Hepatocellular Carcinoma)	> 10000	> 1000	> 10000	> 2000	> 10000	> 3000	7400	> 10000	> 1000	> 5000	> 10000	9050	> 1000	> 300	> 10000	> 20000	> 300	> 10000	> 1000	> 10000	45.4	> 10000	> 10000	83.5	> 3000	> 10000	> 1000	> 1	6200	> 1000	> 1000	> 1000	698	> 10000	> 10000
SW620 (Colorectal Carcinoma)	> 10000	> 1000	> 10000	> 2000	> 10000	> 3000	3420	> 10000	> 1000	928	> 10000	> 10000	> 1000	97.6	> 10000	> 20000	> 300	> 10000	> 1000	911	116	> 10000	> 10000	32.2	1140	> 10000	> 1000	> 1	> 10000	39.6	306	> 1000	640	> 10000	> 10000
WM1552C (Melanoma)	> 10000	> 1000	> 10000	1810	> 10000	> 3000	> 10000	> 10000	> 1000	> 5000	8740	> 10000	> 1000	52.2	> 10000	> 20000	> 300	6180	759	7990	51.5	> 10000	6260	152	1760	> 10000	> 1000	> 1	> 10000	158	34.4	> 1000	> 1000	> 10000	7480
